Assay results from patent US20240190903A1, “COMPOUNDS FOR PROGRAMMABLE PROTEIN DEGRADATION AND METHODS OF USE FOR THE TREATMENT OF DISEASE” (Mayo Foundation for Medical Education and Research, priority 2021, published 2024).

Key:
VCaP cells = assay: MTS cell growth assay in VCaP cells; assay type: cell-based, human; conditions: compound added to cells, different doses
Protocol: VCaP cells were seeded at the density of 5,000 cells per well in 96-well plate overnight. At the indicated time points, optical density (OD) of cells was measured by microtiter reader (Biotek) at 490 nanometer after incubation with MTS (Promega) for 2 hours at 37° C. in a cell incubator. For the treatment with CP-2, ICG-001 or PRI-724, cells were seeded in 96-well plate overnight followed by adding indicated compounds. OD values were measured at the indicated time points.

[1] = test system: PSGs and canonical β-Catenin target genes CCND1 and c-MYC; assay: RT-qPCR and western blot of PSGs, CCND1 and c-MYC in VCaP cells; assay type: cell-based, human
Protocol: PRI-724 is a pro-drug of C-82, a second-generation specific β—Catenin/CBP antagonist.
The total RNA was extracted from cultured cells or organoids using Trizol reagent (Thermo Fisher Scientific) according to the manufacturer's instructions. Complementary DNA was synthesized using reverse transcriptase (Promega). mRNA expression level was determined by real-time quantitative PCR (qPCR) using SYBR Green Mix (Thermo Fisher Scientific) with the realtime PCR system (Bio-Rad). Relative gene expression was normalized to the expression of house-keeping gene Actin Beta (ACTB).

VCaP xenografts = VCaP xenografts in SCID mice; assay type: in vivo; conditions: 25 mg/kg, 23 days
Protocol: For IHC, tissues were rehydrated, endogenous peroxidase activity was destroyed, and antigens were retrieval. Antibodies for IHC as following: anti-AR (ab108341, Abcam), anti-ERG (ab92513, Abcam), anti-Ki67 (ab15580), anti-UMPS (NOVUS, #85896), anti-RRM1 (Cell signaling technology, #8637), anti-CBP (Santa Cruz Biotechnology, sc-583), anti-LEF1 (Cell signaling technology, #2230S). For quantification, the staining score was determined by multiplying the percentage of positive cells and the intensity ranged from 1 (weak staining), 2 (median staining), and 3 (strong staining). For Ki67 quantification, cells with positive staining in the nucleus were included to calculate the percentage of Ki67 positive-staining cells.
Six-week SCID male mice were used in the study. Mice were subcutaneously injected with VCaP cells (5×10^6) mixed with Matrigel mixture (1×PBS: Matrigel (BD Biosciences)=1:1). After the xenografts reached a size of approximately 100 mm^3, mice were treated intraperitoneally with vehicle (90% corn oil (Sigma-Aldrich)+10% DMSO), ICG-001 or CBP PROTAC CP2 at 25 mg/kg for 5 days per week. For LEF1/TCF O′PROTAC administration, mice were transplanted with LuCaP23.1 PDX tumors in the approximately same volume. […] Tumor length (L) and width (W) were measured every 3 days, and tumor volumes were calculated by the formula: (L×W^2)/2. […]

[2] = physiological pH 7.4; hydrolysis of phthalimide and glutarimide moiety; cited from earlier work
293T and VCaP cell lines = assay: Fluorescent microscopy of FITC-labelled ERG O′PROTAC transfection/uptake; assay type: cell-based, human; conditions: 293T cells
Protocol: FIGS. 2A-2C. ERG O′PROTACs degrade ERG protein in cultured cells. (FIG. 2A) 293T cells were transfected with FITC-labelled ERG O′PROTAC-13 (100 nM and 1,000 nM), and the transfection efficiency was monitored 48 hours post-transfection using a fluorescent microscope. Scale bar: 50 μm. (FIG. 2B) 293T cells were transfected with HA-ERG plasmid and a control or six indicated ERG O′PROTACs (100 nM) and harvested for western blot analysis 48 hours post-transfection. ERK2 was used as a loading control. (FIG. 2C) VCaP cells were transfected with a control or six indicated ERG O′PROTACs (100 nM), and cells were harvested for western blot analysis 48 hours post-transfection. Both endogenous full-length (FL) wild-type and TMPRSS2-ERG (T2-ERG) truncated ERG were detected.
FIGS. 12A-12H. Phthalic acid-based ERG O′PROTAC degrades ERG oncoprotein. […] The P values were determined using the unpaired two-tailed Student's t-test. n.s. represents not significant by comparing the values in ERG O′PROTAC-treated groups to the control OP-treated group. […] The remaining ERG protein (%) was calculated by normalizing the value of each group to that of the group without ERG OP-C-P1 treatment. (FIG. 12H) The concentration of ERG OP-C-P1 degrading 50% of ERG protein (DC50) was calculated with Prism software. […]

| Compound | VCaP cell growth (MTS) (VCaP cells) | expression of PSGs, CCND1 and c-MYC at mRNA and protein levels [1] | also measured |
| --- | --- | --- | --- |
| O=C1[C@H](Cc2ccc(O)cc2)N2C(=O)CCN(C(=O)NCc3ccccc3)[C@H]2CN1Cc1cccc2ccccc12 [ICG-001] | inhibited cell growth | decreased expression | mouse body weight (VCaP xenografts): did not result in obvious deleterious effect |
| C[C@H]1[C@H]2N(C(=O)CN(C)N2C(=O)NCc2ccccc2)[C@@H](Cc2ccc(OP(=O)(O)O)cc2)C(=O)N1Cc1cccc2cccnc12 [PRI-724] | inhibition | inhibition | – |
| O=C1CCC(N2C(=O)c3ccccc3C2=O)C(=O)N1 (centres unmarked) [thalidomide] | – | – | stability [2]: poor stability |
| FITC-ERG OP-C1: Forward 5′-FITC-ACGGACCGGAAATCCGGTT-3′; reverse 5′-P1-AACCGGATTTCCGGTCCGT-3′ | – | – | uptake efficacy at 100 nM versus 1,000 nM (293T and VCaP cell lines): no difference in uptake efficacy; cellular uptake with lipofectamine 2000 versus mock transfection (293T and VCaP cell lines; 100 or 1,000 nM): greatly enhanced the cellular uptake |
